# Data reported in US12486304B2, “Peptide ligand targeting carbonic anhydrase IX, peptide construct comprising same, and uses thereof” (priority 2022, dated 2025).
# *1 amine or outer side, *2 acyl side, *3 side chain or, on linkers, in order; H or OH if unused. Where a SMILES comes first, the peptide text is derived from it. [ ]: non-standard residue; d: D form. X1 = NS(=O)(=O)c1ccc(-c2cn(CCCC[C@H](N[*:1])C(=O)[*:2])nn2)cc1
# Settings: human, 168 h
# Experimental: A solution of the peptide structure diluted to a final concentration of 50 μm in 1 mL of 100% pure human serum (Cat #S1, Merk) or plasma (Cat #70039.1, [sequence] Technologies) [or 100% pure mouse serum (Sigma, Cat #S7273) or plasma (Rockland, Cat #D508-06-0050)] was divided into 100 μL. Then, while stored at 37° C., analysis was performed once a day for 7 days using the LC-MS (1260 Infinity II, Infinity Lab LC/MSD, Aglient) equipped with the Agilent Poroshell 120 EC-C18 column (4.6×50 mm, 2.7 μm). Before injecting the sample into the LC, 100 μL of ACN was added to the serum or plasma solution containing the peptides, then put into the centrifuge and spun to settle the precipitate, and only 10 μL of the supernatant was used for analysis.
smiles,measurement,value
C[C@H](O)[C@H]1NC(=O)[C@@H](Cc2ccccc2)NC(=O)[C@@H](Cc2c[nH]cn2)NC(=O)[C@@H](Cc2ccccc2)NC(=O)[C@@H](CCCNC(=N)N)NC(=O)[C@@H](CCCNC(=N)N)NC(=O)[C@H](CCCCn2cc(-c3ccc(S(N)(=O)=O)cc3)nn2)NC(=O)[C@H](CCC(N)=O)NC(=O)CNC(=O)[C@@H](Cc2c[nH]cn2)NC1=O [No. 35] (cyclo(Q[X1][dR][dR][dF][dH][dF][dT][dH]G)),Stability in plasma,not degraded at all and was completely maintained even after 6 days
